One experiment deals with T47D cells. The experiment is described as follows: Cell viability assay, T47D. Format: cell-based. The conditions noted are these: Homo sapiens, 144 h. The protocol: (§1) Cell viability assay: LNCap, 22Rv1, MCF7, MDAMB361, T47D, and IEC6 cells are seeded at a density of 500-2000 cells/well in 96 well plates, and a ‘T0’ (timepoint 0) was included along with the assay plate. The plates are then incubated at 37° C., 5% CO2 in a cell culture incubator overnight. On the next day, the ‘T0’ plate was assayed using CellTiterGlo (Promega, Inc) according to the manufacturer's instructions. The appropriate compounds are diluted in DMSO and added to the assay plate (final DMSO concentration of 0.1-0.2%) on the next day. The assay plates are incubated for 6 days at 37° C., 5% CO2. After the incubation period, the plates are assayed using CellTiterGlo (Promega, Inc) according to the manufacturer's instructions and luminescence was read on the EnVision plate reader. Inhibition of the tested compounds was determined by the following formula: Inhibition rate (%)=(1−(RLU compound−RLU day0)/(RLU control−RLU day0))*100%. GraphPadPrism was used to analyze the data and determine GI50/IC50 values.

For the next experiment, the system named is IEC6 cells. Briefly: Cell viability assay, IEC6. The following applies: Rattus norvegicus. Format: cell-based. How it is done: as §1
The next experiment relates to LNCap cells. Briefly: Cell viability assay, LNCap. Format: cell-based. The following applies: Homo sapiens, 144 h. The protocol: as §1
For a further experiment, the target named is AR (Homo sapiens (Human), UniProt P10275, T878A). Briefly: AR binding assay. The protocol: AR binding assay: To assess AR binding, test compound (top dose 10 μM, 4 fold serial dilution, 8 point dose response) and control (progesterone) were transferred to the assay plate. Cytosol from LnCaP cells was added to the plate, followed by addition of radiolabeled ^3H-R1881 at a final concentration of 1 nM. The plate was sealed, and the reaction was incubated at 300 rpm at 4° C. for 24 hrs. Radioligand absorption buffer (10 mM Tris-HCl, pH 7.4; 1.5 mM EDTA; 1 mM DTT; 0.25% charcoal; 0.0025% dextran) was then added to the plate, mixed, and incubated at 4° C. for 15 minutes. The plate was then centrifuged at 3000 rpm for 30 minutes at 4° C. The supernatant was transferred to the scint-tube and Tri-carb was used for scintillation counting. The data was analyzed using GraphPadPrism v5.0 and binding IC50 was determined as the concentration where 50% inhibition of radioligand binding was observed.
AR, sequence (P10275 whole entry T878A): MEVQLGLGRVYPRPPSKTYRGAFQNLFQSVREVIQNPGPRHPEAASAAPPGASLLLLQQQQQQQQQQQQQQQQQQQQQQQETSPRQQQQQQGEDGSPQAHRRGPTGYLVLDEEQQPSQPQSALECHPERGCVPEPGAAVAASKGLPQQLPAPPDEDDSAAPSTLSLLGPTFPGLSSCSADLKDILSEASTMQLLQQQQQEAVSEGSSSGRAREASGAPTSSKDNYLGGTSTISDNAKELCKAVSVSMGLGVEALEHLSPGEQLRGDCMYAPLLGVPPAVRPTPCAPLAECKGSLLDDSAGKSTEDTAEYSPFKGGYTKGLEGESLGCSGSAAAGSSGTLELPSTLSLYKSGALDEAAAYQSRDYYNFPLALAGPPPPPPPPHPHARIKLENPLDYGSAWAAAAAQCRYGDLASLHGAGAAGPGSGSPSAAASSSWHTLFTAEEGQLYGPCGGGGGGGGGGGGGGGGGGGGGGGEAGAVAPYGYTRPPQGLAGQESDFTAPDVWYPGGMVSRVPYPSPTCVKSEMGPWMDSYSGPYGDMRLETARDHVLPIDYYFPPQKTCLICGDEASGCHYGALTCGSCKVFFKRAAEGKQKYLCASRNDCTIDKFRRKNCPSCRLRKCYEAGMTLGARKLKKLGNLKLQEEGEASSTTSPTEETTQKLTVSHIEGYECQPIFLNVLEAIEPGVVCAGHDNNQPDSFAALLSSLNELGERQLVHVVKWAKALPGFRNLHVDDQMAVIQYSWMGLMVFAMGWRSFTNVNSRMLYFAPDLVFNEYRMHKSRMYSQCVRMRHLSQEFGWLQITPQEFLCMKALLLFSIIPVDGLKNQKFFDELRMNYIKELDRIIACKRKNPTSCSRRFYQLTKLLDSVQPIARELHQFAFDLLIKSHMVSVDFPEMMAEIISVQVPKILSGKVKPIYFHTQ

For experiment [1], the target named is full-length androgen receptor (Homo sapiens (Human), UniProt P10275). Briefly: AR antagonism assay. Format: cell-based. How it is done: AR antagonism assay: To evaluate AR antagonist activity, test compound was added to the assay plate (top dose 10 μM, 3 fold serial dilution, 10 point dose response). HEK293 cells stably expressing the full-length androgen receptor were seeded at a density of 20,000 cells/well in the assay plate. The assay plate was then incubated at room temperature for 10 minutes and at 37° C., 5% CO2 for 20 minutes. Testosterone was added to the assay plate at 1 nM final concentration and the assay plate incubated at 37° C., 5% CO2 for 20 h. After the incubation period, Steady-glo was added to the assay plate and mixed at room temperature for 20 minutes on an orbital shaker, before reading out on the EnVision plate reader.
full-length androgen receptor, sequence (P10275 whole entry): as the sequence (P10275 whole entry T878A) above, with A878T counted along it

The next experiment has as its system 22Rv1 cells. Briefly: Cell viability assay, 22Rv1. It is filed as cell-based. The conditions noted are these: Homo sapiens. The protocol:
as §1

The mark [2] stands for this setting: T47D, read-out: T47D (GI50, nM).
Where [3] appears, read: IEC-6, 144 h, read-out: IEC-6 (IC50, nM).
Where [4] appears, read: LNCaP, read-out: LNCap (GI50, nM).
Setting [5] is: 144 h, IEC-6 cells, 6 days, CellTiterGlo, read-out: IEC-6 (IC50).
[6] abbreviates: LNCap cells, 6 days, CellTiterGlo, read-out: LNCap (GI50).

We go through eight molecules from patent US11834458B2, “Anti-cancer nuclear hormone receptor-targeting compounds” (Nuvation Bio Inc., priority 2021, dated 2023).

Read-outs that look alike come from different tables or passages of the source.

Turning to `CC[C@@]1(O)C(=O)OCc2c1cc1n(c2=O)Cc2cc3c(CN(C)C)c(OC(=O)N4C[C@@H](C)N(CCCCCCN(C)c5ccc([C@H]6C[C@@]7(C)[C@@H](CC[C@]7(OC(C)=O)C(C)=O)[C@@H]7CCC8=CC(=O)CCC8=C76)cc5)C[C@@H]4C)ccc3nc2-1` [Compound 23, (S)-10-((Dimethylamino)methyl)-4-ethyl-4-hydroxy-3,14-dioxo-3,4,12,14-tetrahydro-1H-pyrano[3′,4′:6,7]indolizino[1,2-b]quinolin-9-yl (2S,5R)-4-(6-((4-((8S,11R,13S,14S,17R)-17-acetoxy-17-acetyl-13-methyl-3-oxo-2,3,6,7,8,11,12,13,14,15,16,17-dodecahydro-1H-cyclopenta[a]phenanthren-11-yl)phenyl)(methyl)amino)hexyl)-2,5-dimethylpiperazine-1-carboxylate], the GI50 with T47D cells (setting [2]) lay within 10 to 500 nM; with LNCap cells (setting [4]), 501 to 1000 nM. The IC50 with IEC6 cells (setting [3]) is 10 to 500 nM.
For the molecule `CC[C@@]1(O)C(=O)OCc2c1cc1n(c2=O)Cc2cc3c(CN(C)C)c(OC4CCN(CCCCCCN(C)c5ccc([C@H]6C[C@@]7(C)C(CC[C@]7(OC(C)=O)C(C)=O)C7CCC8=CC(=O)CCC8=C76)cc5)CC4)ccc3nc2-1` (stereo partly drawn) [Compound 9, (11R,13S,17R)-17-Acetyl-11-(4-((6-(4-(((S)-10-((dimethylamino)methyl)-4-ethyl-4-hydroxy-3,14-dioxo-3,4,12,14-tetrahydro-1H-pyrano[3′,4′:6,7]indolizino[1,2-b]quinolin-9-yl)oxy)piperidin-1-yl)hexyl)(methyl)amino)phenyl)-13-methyl-3-oxo-2,3,6,7,8,11,12,13,14,15,16,17-dodecahydro-1H-cyclopenta[a]phenanthren-17-yl acetate], the GI50 with T47D cells (T47D cells, 6 days, CellTiterGlo, read-out: T47D (GI50)) is 10 to 500 nM; with LNCap cells (setting [6]) it was 501 to 1000 nM. The IC50 in the experiment with IEC6 cells (setting [5]) was above 1000 nM; on AR (cytosol from LnCaP cells, 3H-R1881 1 nM, 4° C. 24 hrs, read-out: AR binding), 0.01 to 0.5 µM; in experiment [1], above 1 µM.
`CC[C@@]1(O)C(=O)OCc2c1cc1n(c2=O)Cc2cc3c(CN(C)C)c(OC(=O)N4C5CCC4CN(CCCCCCN(C)c4ccc([C@H]6C[C@@]7(C)[C@@H](CC[C@]7(OC(C)=O)C(C)=O)[C@@H]7CCC8=CC(=O)CCC8=C76)cc4)C5)ccc3nc2-1` [Compound 22, (S)-10-((Dimethylamino)methyl)-4-ethyl-4-hydroxy-3,14-dioxo-3,4,12,14-tetrahydro-1H-pyrano[3′,4′:6,7]indolizino[1,2-b]quinolin-9-yl 3-(6-((4-((8S,11R,13S,14S,17R)-17-acetoxy-17-acetyl-13-methyl-3-oxo-2,3,6,7,8,11,12,13,14,15,16,17-dodecahydro-1H-cyclopenta[a]phenanthren-11-yl)phenyl)(methyl)amino)hexyl)-3,8-diazabicyclo[3.2.1]octane-8-carboxylate]: the GI50 with T47D cells (setting [2]) and with LNCap cells (setting [4]) was 10 to 500 nM throughout. Further, the IC50 with IEC6 cells (setting [3]) lay in the range of 10 to 500 nM.
For the molecule `CC[C@@]1(O)C(=O)OCc2c1cc1n(c2=O)Cc2cc3c(CN(C)C)c(OC(=O)N4CCN(C(=O)C5CCN(c6ccc(C(=O)N[C@H]7CC[C@H](Oc8ccc(C#N)c(Cl)c8)CC7)nn6)CC5)CC4)ccc3nc2-1` [Compound 26, (S)-10-((Dimethylamino)methyl)-4-ethyl-4-hydroxy-3,14-dioxo-3,4,12,14-tetrahydro-1H-pyrano[3′,4′:6,7]indolizino[1,2-b]quinolin-9-yl 4-(1-(6-(((1r,4r)-4-(3-chloro-4-cyanophenoxy)cyclohexyl)carbamoyl)pyridazin-3-yl)piperidine-4-carbonyl)piperazine-1-carboxylate], the GI50 is 10 to 500 nM with 22Rv1 cells (22Rv1, 144 h, read-out: 22RV1 (GI50, nM)) and 10 to 500 nM in the experiment on LNCap cells (setting [4]). In addition, the IC50 with IEC6 cells (setting [3]) was above 1000 nM.
As for `CC[C@@]1(O)C(=O)OCc2c1cc1n(c2=O)Cc2cc3c(CN(C)C(=O)CO[C@H]4CC[C@H]5[C@@H]6CC[C@H]7CC(=O)CC[C@]7(C)[C@H]6CC[C@]45C)c(O)ccc3nc2-1` [Compound 25, 2-(((5S,8R,9S,10S,13S,14S,17S)-10,13-Dimethyl-3-oxohexadecahydro-1H-cyclopenta[a]phenanthren-17-yl)oxy)-N—(((S)-4-ethyl-4,9-dihydroxy-3,14-dioxo-3,4,12,14-tetrahydro-1H-pyrano[3′,4′:6,7]indolizino[1,2-b]quinolin-10-yl)methyl)-N-methylacetamide], the GI50 in the experiment with 22Rv1 cells (144 h, 22RV1 cells, 6 days, CellTiterGlo, read-out: 22RV1 (GI50)) fell in the range of 10 to 500 nM; with LNCap cells (setting [6]), 10 to 500 nM. In addition, the IC50 with IEC6 cells (setting [5]) is above 1000 nM.
For the molecule `CCc1c2c(nc3ccc(OC(=O)N4CCN(CCCCCCN(C)c5ccc([C@H]6C[C@@]7(C)[C@@H](CC[C@]7(OC(C)=O)C(C)=O)[C@@H]7CCC8=CC(=O)CCC8=C76)cc5)CC4)cc13)-c1cc3c(c(=O)n1C2)COC(=O)[C@]3(O)CC` [Compound 4, (S)-4,11-diethyl-4-hydroxy-3,14-dioxo-3,4,12,14-tetrahydro-1H-pyrano[3′,4′:6,7]indolizino[1,2-b]quinolin-9-yl 4-(6-((4-((8S,11R,13S,14S,17R)-17-acetoxy-17-acetyl-13-methyl-3-oxo-2,3,6,7,8,11,12,13,14,15,16,17-dodecahydro-1H-cyclopenta[a]phenanthren-11-yl)phenyl)(methyl)amino)hexyl)piperazine-1-carboxylate], the GI50 in the experiment with T47D cells (setting [2]) and in the experiment with LNCap cells (setting [4]) was 10 to 500 nM each time.
With `CC[C@@]1(O)C(=O)OCc2c1cc1n(c2=O)Cc2cc3c(CN(C)C)c(OC(=O)N4C[C@H](C)N(CCCCCCN(C)c5ccc([C@H]6C[C@@]7(C)[C@@H](CC[C@]7(OC(C)=O)C(C)=O)[C@@H]7CCC8=CC(=O)CCC8=C76)cc5)C[C@H]4C)ccc3nc2-1` [Compound 24, (S)-10-((Dimethylamino)methyl)-4-ethyl-4-hydroxy-3,14-dioxo-3,4,12,14-tetrahydro-1H-pyrano[3′,4′:6,7]indolizino[1,2-b]quinolin-9-yl (2R,5S)-4-(6-((4-((8S,11R,13S,14S,17R)-17-acetoxy-17-acetyl-13-methyl-3-oxo-2,3,6,7,8,11,12,13,14,15,16,17-dodecahydro-1H-cyclopenta[a]phenanthren-11-yl)phenyl)(methyl)amino)hexyl)-2,5-dimethylpiperazine-1-carboxylate], the GI50 in the experiment with T47D cells (setting [2]) and in the experiment on LNCap cells (setting [4]) was 10 to 500 nM in each case. Further, the IC50 in the experiment on IEC6 cells (setting [3]) lay in the range of 501 to 1000 nM.
`CC[C@@]1(O)C(=O)OCc2c1cc1n(c2=O)Cc2cc3c(CN(C)C)c(OC4CCN(CCCCCCCN(C)c5ccc([C@H]6C[C@@]7(C)C(CC[C@]7(OC(C)=O)C(C)=O)C7CCC8=CC(=O)CCC8=C76)cc5)CC4)ccc3nc2-1` (stereo partly drawn) [Compound 10, (11R,13S,17R)-17-Acetyl-11-(4-((7-(4-(((S)-10-((dimethylamino)methyl)-4-ethyl-4-hydroxy-3,14-dioxo-3,4,12,14-tetrahydro-1H-pyrano[3′,4′:6,7]indolizino[1,2-b]quinolin-9-yl)oxy)piperidin-1-yl)heptyl)(methyl)amino)phenyl)-13-methyl-3-oxo-2,3,6,7,8,11,12,13,14,15,16,17-dodecahydro-1H-cyclopenta[a]phenanthren-17-yl-acetate]: the GI50 in the experiment on T47D cells (setting [2]) and with LNCap cells (setting [4]) was 10 to 500 nM in each case. Besides, the values for the IC50 (on AR; in experiment [1]) were 0.01 to 0.5 µM and above 1 µM, respectively.

The GI50 is the concentration giving 50% growth inhibition.
